# In ChEMBL document CHEMBL5241112, “Insights into the recent progress in the medicinal chemistry of pyranopyrimidine analogs” (RSC Med Chem, 2022):
# What was measured:
# [1] = system: Klebsiella pneumoniae; assay: Antimicrobial activity against Klebsiella pneumoniae ATCC 15380 assessed as diameter of inhibition zone at 20 mg/ml incubated for 24 hrs by disk diffusion method; assay type: functional; conditions: read-out: DIZ
# [2] = system: Citrobacter freundii; assay: Antimicrobial activity against Citrobacter freundii ATCC 8090 assessed as diameter of inhibition zone at 20 mg/ml incubated for 24 hrs by disk diffusion method; assay type: functional; conditions: read-out: DIZ
# [3] = system: Salmonella typhimurium; assay: Antimicrobial activity against Salmonella typhimurium ATCC 19430 assessed as diameter of inhibition zone at 20 mg/ml incubated for 24 hrs by disk diffusion method; assay type: functional, Salmonella enterica subsp. enterica serovar Typhimurium; conditions: Salmonella enterica, read-out: DIZ
# [4] = system: Escherichia coli; assay: Antimicrobial activity against Escherichia coli ATCC 25922 assessed as diameter of inhibition zone at 20 mg/ml incubated for 24 hrs by disk diffusion method; assay type: functional; conditions: read-out: DIZ
# [5] = system: Pseudomonas aeruginosa; assay: Antimicrobial activity against Pseudomonas aeruginosa ATCC 27853 assessed as diameter of inhibition zone at 20 mg/ml incubated for 24 hrs by disk diffusion method; assay type: functional; conditions: read-out: DIZ
# [6] = target: Polyunsaturated fatty acid 5-lipoxygenase (Homo sapiens, UniProt P09917); assay: Inhibition of 5-LOX (unknown origin) by colorimetric analysis
# Chain of Polyunsaturated fatty acid 5-lipoxygenase (P09917 whole entry): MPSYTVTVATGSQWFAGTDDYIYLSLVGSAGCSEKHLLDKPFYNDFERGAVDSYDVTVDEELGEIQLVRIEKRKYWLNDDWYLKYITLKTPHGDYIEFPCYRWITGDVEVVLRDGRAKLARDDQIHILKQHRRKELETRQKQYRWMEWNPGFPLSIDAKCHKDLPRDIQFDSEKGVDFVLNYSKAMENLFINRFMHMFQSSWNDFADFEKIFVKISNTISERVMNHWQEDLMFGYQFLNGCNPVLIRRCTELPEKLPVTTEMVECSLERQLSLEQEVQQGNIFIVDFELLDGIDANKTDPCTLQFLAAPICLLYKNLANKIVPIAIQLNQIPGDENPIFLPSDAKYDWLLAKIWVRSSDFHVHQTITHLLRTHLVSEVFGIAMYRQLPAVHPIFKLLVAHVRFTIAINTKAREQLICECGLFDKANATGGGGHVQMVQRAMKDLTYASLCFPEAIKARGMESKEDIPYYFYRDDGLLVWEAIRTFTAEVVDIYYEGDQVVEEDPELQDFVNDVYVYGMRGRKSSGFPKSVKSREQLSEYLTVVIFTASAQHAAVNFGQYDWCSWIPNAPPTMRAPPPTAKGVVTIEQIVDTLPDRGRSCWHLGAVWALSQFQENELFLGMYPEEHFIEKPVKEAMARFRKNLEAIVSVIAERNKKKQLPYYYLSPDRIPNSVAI
# [7] = cells; conditions: Homo sapiens, Macrophage
# [8] = system: Mycobacterium tuberculosis; assay: Antitubercular activity against Mycobacterium tuberculosis H37Rv assessed as bacterial growth inhibition at 250 ug/ml; assay type: functional
# [9] = system: Plasmodium falciparum; assay: microbe, parasite or virus in culture
# [10] = system: Mycobacterium tuberculosis; assay: Antitubercular activity against Mycobacterium tuberculosis H37Rv assessed as bacterial growth inhibition at 100 ug/ml; assay type: functional
# [11] = system: Mycobacterium tuberculosis; assay: Antimicrobial activity against Mycobacterium tuberculosis H37Rv assessed reduction bacterial growth at 100 ug/ml incubated for 24 hrs by Lowensteine-Jensen method; assay type: functional; parameters: scale not given: the % may be the effect or the level left; conditions: dose 100 µg/ml
# [12] = system: Escherichia coli; assay: Antibacterial activity against Escherichia coli MTCC 443 assessed as bacterial growth inhibition by broth microdilution method; assay type: functional
# [13] = target: Alpha-glucosidase (Mus musculus); assay: Inhibition of mouse alpha-glucosidase assessed as decrease in release of p-nitrophenol using pNPG as substrate preincubated for 10 mins followed by substrate addition and measured after 30 mins by spectroscopic analysis
# [14] = target: Alpha-glucosidase (Saccharomyces cerevisiae S288c, UniProt P53341+P38158+P07265); assay: Inhibition of Saccharomyces cerevisiae alpha-glucosidase assessed as decrease in release of p-nitrophenol using pNPG as substrate incubated for 10 mins by spectroscopic analysis; assay type: protein assay
# [15] = system: Staphylococcus aureus; assay: Antibacterial activity against Staphylococcus aureus MLS-16 MTCC 2940 assessed as minimum bactericidal concentration; assay type: functional
# [16] = system: Bacillus subtilis; assay: Antibacterial activity against Bacillus subtilis MTCC 121 assessed as bacterial growth inhibition; assay type: functional
# [17] = system: Bacillus subtilis; assay: Antibacterial activity against Bacillus subtilis MTCC 121 assessed as minimum bactericidal concentration; assay type: functional
# [18] = system: Raoultella planticola; assay: Antibacterial activity against Raoultella planticola MTCC 530 assessed as bacterial growth inhibition; assay type: functional; conditions: Klebsiella planticola
# [19] = system: Micrococcus luteus; assay: Antibacterial activity against Micrococcus luteus MTCC 2470 assessed as bacterial growth inhibition; assay type: functional
# [20] = system: Staphylococcus aureus; assay: Antibacterial activity against Staphylococcus aureus MLS-16 MTCC 2940 assessed as bacterial growth inhibition; assay type: functional
# [21] = system: Pseudomonas aeruginosa; assay: Antibacterial activity against Pseudomonas aeruginosa MTCC 2453 assessed as bacterial growth inhibition; assay type: functional
# [22] = system: Escherichia coli; assay: Antibacterial activity against Escherichia coli MTCC 739 assessed as bacterial growth inhibition; assay type: functional
# [23] = system: Staphylococcus aureus; assay: Antibacterial activity against Staphylococcus aureus MTCC 96 assessed as minimum bactericidal concentration; assay type: functional
# [24] = Antioxidant activity assessed as trolox equivalent of ABTS radical scavenging activity and measured after 6 mins by UV-vis spectrophotometry; assay type: functional
# [25] = system: Aspergillus fumigatus; assay: microbe, parasite or virus in culture; assay type: functional; conditions: ATCC204305, dose 50 mg/ml, time 24 hrs, read-out: DIZ
# [26] = system: Escherichia coli; assay: Antibacterial activity against Escherichia coli ATCC 25922 assessed as diameter of inhibition zone at 50 mg/ml incubated for 24 hrs by paper disk diffusion method; assay type: functional; conditions: read-out: DIZ
# [27] = target: DNA gyrase (Escherichia coli, UniProt P0AES4+P0AES6); assay: Inhibition of Escherichia coli DNA gyrase; assay type: protein-complex assay
# [28] = system: Aspergillus fumigatus; assay: Antifungal activity against Aspergillus fumigatus ATCC204305 assessed as inhibition of […] growth incubated for 24 hrs by disk diffusion method; assay type: functional
# [29] = Inhibition of Escherichia coli topoisomerase 4 assessed as reduction in decatenation
# [30] = system: Staphylococcus epidermidis; assay: Antibacterial activity against Staphylococcus epidermidis ATCC12228 assessed as inhibition of bacterial growth incubated for 24 hrs by disk diffusion method; assay type: functional
# [31] = system: Penicillium italicum; assay: microbe, parasite or virus in culture; assay type: functional; conditions: CECT 2294, dose 50 mg/ml, time 24 hrs, read-out: DIZ
# [32] = system: Klebsiella pneumoniae; assay: Antibacterial activity against Klebsiella pneumoniae MGH 78578 assessed as diameter of inhibition zone at 50 mg/ml incubated for 24 hrs by paper disk diffusion method; assay type: functional; conditions: read-out: DIZ
# [33] = system: Staphylococcus aureus; assay: Antibacterial activity against Staphylococcus aureus ATCC6538-P assessed as inhibition of bacterial growth incubated for 24 hrs by disk diffusion method; assay type: functional
# [34] = system: Staphylococcus aureus; assay: Antibacterial activity against Staphylococcus aureus MTCC 87 assessed as diameter of inhibition zone at 0.1 mg/ml incubated for 24 hrs by agar well diffusion method; assay type: functional; conditions: read-out: DIZ
# [35] = system: Escherichia coli; assay: Antibacterial activity against Escherichia coli MTCC 723 assessed as diameter of inhibition zone at 0.1 mg/ml incubated for 24 hrs by agar well diffusion method; assay type: functional; conditions: read-out: DIZ
# [36] = system: Pseudomonas aeruginosa; assay: Antibacterial activity against Pseudomonas aeruginosa MTCC 741 assessed as diameter of inhibition zone at 0.1 mg/ml incubated for 24 hrs by agar well diffusion method; assay type: functional; conditions: read-out: DIZ
# [37] = system: Klebsiella pneumoniae; assay: Antibacterial activity against Klebsiella pneumoniae MTCC 109 assessed as diameter of inhibition zone at 0.1 mg/ml incubated for 24 hrs by agar well diffusion method; assay type: functional; conditions: read-out: DIZ
# [38] = system: Escherichia coli; assay: Antibacterial activity against Escherichia coli assessed as diameter of inhibition zone at 100 ug/ml by disc diffusion method; assay type: functional; conditions: read-out: DIZ
# [39] = system: Streptococcus pneumoniae; assay: Antibacterial activity against Streptococcus pneumoniae ATCC BAA-255/R6 assessed as inhibition of bacterial growth incubated for 24 hrs by disk diffusion method; assay type: functional
# [40] = system: Staphylococcus aureus; assay: Antibacterial activity against Staphylococcus aureus assessed as diameter of inhibition zone at 100 ug/ml by disc diffusion method; assay type: functional; conditions: read-out: DIZ
# [41] = system: Bacillus subtilis; assay: Antibacterial activity against Bacillus subtilis assessed as diameter of inhibition zone at 100 ug/ml by disc diffusion method; assay type: functional; conditions: read-out: DIZ
# [42] = system: Klebsiella pneumoniae; assay: Antibacterial activity against Klebsiella pneumoniae assessed as diameter of inhibition zone at 100 ug/ml by disc diffusion method; assay type: functional; conditions: read-out: DIZ
# [43] = Selectivity index, ratio of CC50 for cytotoxicity against human MT4 cells to EC50 for antiviral activity against HIV1 IIIB infected in human MT4 cells; assay type: toxicity, cell-based; conditions: read-out: Selectivity Index
# [44] = Cytotoxicity against human MT4 cells assessed as reduction in cell viability by MTT assay; assay type: toxicity, cell-based
# [45] = system: Human immunodeficiency virus 1; assay: Antiviral activity against HIV1 IIIB infected in human MT4 cells assessed as reduction in virus-induced cytopathic effect by MTT assay; assay type: functional, organism-based; conditions: Human immunodeficiency virus 1, IIIB
# [46] = Selectivity index, ratio of CC50 for cytotoxicity against human MT4 cells to EC50 for antiviral activity against HIV2 ROD infected in human MT4 cells; assay type: toxicity, cell-based; conditions: read-out: Selectivity Index
# [47] = system: Human immunodeficiency virus 2; assay: Antiviral activity against HIV2 ROD infected in human MT4 cells assessed as reduction in virus-induced cytopathic effect by MTT assay; assay type: functional, organism-based; conditions: Human immunodeficiency virus 2, ROD
compound,measurement,setting,value
Cc1csc(C2C(C#N)=C(N)Oc3[nH]c(=O)[nH]c(=O)c32)c1 (stereo not given),zone of inhibition at 20000 µg/mL,[1],16 mm
same,zone of inhibition at 20000 µg/mL,[2],12 mm
same,zone of inhibition at 20000 µg/mL,[3],20 mm
same,zone of inhibition at 20000 µg/mL,[4],14 mm
same,zone of inhibition at 20000 µg/mL,[5],18 mm
N#CC1=C(NC[C@]2(O)O[C@H](O)[C@@H](O)[C@@H](O)[C@H]2O)Oc2[nH]c(=S)[nH]c(=O)c2C1c1ccc(Cl)cc1 (stereo not given in full),IC50,[6],1660 nM
same,IC50,[7],3230 nM
CCOC(=O)C1=C(N)Oc2[nH]c(=O)[nH]c(=O)c2C1c1c(C)nn(-c2ccccc2)c1-n1ccnc1 (stereo not given),inhibition at 250 µg/mL,[8],37%
same,IC50,[9],0.97 µg/mL
same,inhibition at 100 µg/mL,[10],30%
same,Activity,[11],92%
same,MIC,[12],100 µg/mL
COc1cc(/C=C/C(=O)C2=C(/C=C/c3ccc(O)c(OC)c3)Oc3[nH]c(=O)[nH]c(=O)c3C2c2ccc([N+](=O)[O-])cc2)ccc1O (stereo not given),IC50,[13],106800 nM
same,IC50,[14],12410 nM
Cc1ccc(C2c3c(Nc4ccc([N+](=O)[O-])cc4)ncnc3Oc3c2c(=O)oc2ccccc32)cc1 (stereo not given),MBC,[15],15.6 µg/mL
same,MIC,[16],15.6 µg/mL
same,MBC,[17],15.6 µg/mL
same,MIC,[18],15.6 µg/mL
same,MIC,[19],15.6 µg/mL
same,MIC,[20],15.6 µg/mL
same,MIC,[21],15.6 µg/mL
same,MIC,[22],15.6 µg/mL
same,MBC,[23],15.6 µg/mL
CCOC(=O)C1=C(N)Oc2[nH]c(=O)[nH]c(=O)c2C1[C@H](O)[C@@H](O)[C@H](O[C@H]1O[C@H](CO)[C@@H](O)[C@H](O)[C@H]1O)[C@H](O)CO (stereo not given in full),Activity,[24],5.24 µM
Nc1nc(=S)[nH]c2c1C(c1ccc(Cl)cc1)C=C(c1cc3ccccc3oc1=O)O2 (stereo not given),zone of inhibition at 50000 µg/mL,[25],10 mm
same,zone of inhibition at 50000 µg/mL,[26],10 mm
same,IC50,[27],4.91 nM
same,MIC,[28],15.5 µg/mL
same,IC50,[29],341 nM
same,MIC,[30],15.3 µg/mL
same,zone of inhibition at 50000 µg/mL,[31],16 mm
same,zone of inhibition at 50000 µg/mL,[32],12 mm
CC1(C)S[C@@H]2[C@H](NC(=O)[C@H](N)c3ccc(O)cc3)C(=O)N2[C@H]1C(=O)O [AMOXICILLIN],MIC,[33],31.3 µg/mL
same,zone of inhibition at 50000 µg/mL,[26],24 mm
same,zone of inhibition at 100 µg/mL,[34],13.8 mm
same,zone of inhibition at 100 µg/mL,[35],14.9 mm
same,zone of inhibition at 100 µg/mL,[36],15 mm
same,MIC,[28],15.6 µg/mL
same,zone of inhibition at 100 µg/mL,[37],13.6 mm
same,zone of inhibition at 100 µg/mL,[38],19.5 mm
same,MIC,[39],7.8 µg/mL
same,zone of inhibition at 100 µg/mL,[40],17.5 mm
same,zone of inhibition at 100 µg/mL,[41],15.5 mm
same,zone of inhibition at 100 µg/mL,[42],18 mm
same,zone of inhibition at 50000 µg/mL,[32],15 mm
Cc1nc2c(c(=O)[nH]1)C(c1cccc3ccccc13)c1c(c3ccccc3oc1=O)O2 (stereo not given),selectivity ratio,[43],< 1
same,CC50,[44],3.63 µg/mL
same,EC50,[45],3.63 µg/mL
same,selectivity ratio,[46],< 1
same,EC50,[47],3.63 µg/mL
